Reference: publication PMC6327980 (Journal of Enzyme Inhibition and Medicinal Chemistry, 2018)
Like-named read-outs stand apart in the source and are kept apart here.

Tests used:
BpsCAβ = target: T1, BpsCAβ (Burkholderia pseudomallei, UniProt Q63Y17); assay type: biochemical; conditions: read-out: BpsCAβ
T1 construct: gene BPSL0372

VchCAα = target: T2, VchCAα (Vibrio cholerae, UniProt Q9KMP6); assay: biochemical
T2 construct: gene VC_A0274

BpsCAγ = target: T3, BpsCAγ; assay type: biochemical, Burkholderia pseudomallei
T3 construct: gene BpsCAgamma

VchCAβ = target: T4, VchCAβ (Vibrio cholerae, UniProt Q9KUD6); assay: biochemical
T4 construct: gene VC_0586
T4 sequence (Q9KUD6 1-222): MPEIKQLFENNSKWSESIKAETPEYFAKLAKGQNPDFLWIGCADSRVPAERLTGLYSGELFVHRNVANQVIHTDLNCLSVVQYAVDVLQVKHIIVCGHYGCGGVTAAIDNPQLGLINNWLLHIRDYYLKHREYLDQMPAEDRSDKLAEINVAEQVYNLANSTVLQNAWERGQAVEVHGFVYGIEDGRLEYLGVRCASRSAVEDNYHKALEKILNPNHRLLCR

T2 sequence (Q9KMP6 21-239 limits assumed): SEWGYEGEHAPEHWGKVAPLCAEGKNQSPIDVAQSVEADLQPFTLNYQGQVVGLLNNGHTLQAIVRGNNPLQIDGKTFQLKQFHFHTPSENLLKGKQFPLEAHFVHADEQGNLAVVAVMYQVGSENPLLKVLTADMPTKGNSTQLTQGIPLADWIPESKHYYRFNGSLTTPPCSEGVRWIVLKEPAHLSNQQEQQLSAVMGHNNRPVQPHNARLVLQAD
T1 sequence (Q63Y17 1-256): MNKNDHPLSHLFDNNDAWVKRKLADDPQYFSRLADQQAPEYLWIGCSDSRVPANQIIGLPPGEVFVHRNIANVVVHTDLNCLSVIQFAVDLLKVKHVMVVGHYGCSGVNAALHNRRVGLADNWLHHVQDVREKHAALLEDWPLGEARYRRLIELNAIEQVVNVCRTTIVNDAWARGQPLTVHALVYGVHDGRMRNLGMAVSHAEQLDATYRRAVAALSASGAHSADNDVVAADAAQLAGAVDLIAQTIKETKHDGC

| SMILES | Ki (BpsCAβ) | Ki (VchCAα) | Ki (BpsCAγ; read-out: VchCAγ) | Ki (VchCAβ) | Ki (BpsCAγ; read-out: BpsCAγ) |
| --- | --- | --- | --- | --- | --- |
| NS(=O)(=O)c1ccc(-c2ncc(C[Te]c3ccccc3)[se]2)cc1 [9a] | 0.92 µM | 0.94 µM | 8.9 µM | 7.7 µM |  |
| Cc1ccc([Te]Cc2cnc(-c3ccc(S(N)(=O)=O)cc3)[se]2)cc1 [9b] | 0.32 µM | 0.47 µM | 7.6 µM | 7.72 µM |  |
| COc1ccc([Te]Cc2cnc(-c3ccc(S(N)(=O)=O)cc3)[se]2)cc1 [9c] |  | 0.77 µM |  | 9.08 µM |  |
| NS(=O)(=O)c1ccc(-c2ncc(C[Se]c3ccccc3)[se]2)cc1 [10a] |  | 0.87 µM |  | 8.84 µM |  |
| Cc1ccc([Se]Cc2cnc(-c3ccc(S(N)(=O)=O)cc3)[se]2)cc1 [10b] |  | 0.46 µM |  | 8.59 µM |  |
| COc1ccc([Se]Cc2cnc(-c3ccc(S(N)(=O)=O)cc3)[se]2)cc1 [10c] |  | 0.92 µM |  | 6.79 µM |  |
| N=C(N)SCc1cnc(-c2ccc(S(N)(=O)=O)cc2)[se]1 [compound 11, 11] |  | 0.44 µM |  | 9.12 µM | 6.55 µM |
